pIC50: −log10 of the molar value. The source made the active and inactive calls. The calls are words filed in the database; no cut-off is given here.
Assays:
Peptide deformylase = molecular target: T1, Peptide deformylase (Escherichia coli, UniProt Q9JN24); experiment: Inhibition of Escherichia coli PDF
T1 sequence (Q9JN24 whole entry): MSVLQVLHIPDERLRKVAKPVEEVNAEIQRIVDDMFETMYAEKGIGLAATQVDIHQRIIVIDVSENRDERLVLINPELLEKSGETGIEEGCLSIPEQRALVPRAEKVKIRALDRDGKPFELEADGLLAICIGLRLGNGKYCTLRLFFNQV

Glycine max = experiment: Inhibition of soybean PDF using PDF/FDH coupled spectrophotometric assay

pIC50 (Peptide deformylase)	Activity (Glycine max)	SMILES
< 4.52		CC(/C=C1\SC(=S)N(CCCCCC(=O)O)C1=O)=C\c1ccccc1
< 4.52		Cc1nn(CCC#N)cc1/C=C1\SC(=S)N(CCCCCC(=O)O)C1=O
< 4.52	inactive	Cc1ccc(-c2nn(-c3ccccc3)cc2/C=C2\SC(=S)N(CC(=O)O)C2=O)cc1
< 4.52		O=C(O)CCCCCN1C(=O)/C(=C/c2cn(-c3ccccc3)nc2-c2cccs2)SC1=S
< 4.52		COc1ccc(/C=C2\SC(=S)N(CCCCCC(=O)O)C2=O)cc1Br
< 4.52		O=C(O)CCCCCN1C(=O)/C(=C/c2ccc(F)cc2)SC1=S
< 4.52		O=C(O)CCCCCN1C(=O)/C(=C/c2c[nH]c3ccccc23)SC1=S
< 4.52		Cc1cc(/C=C2\SC(=S)N(CCCCCC(=O)O)C2=O)c(C)n1-c1ccc(Br)cc1
< 4.52		Cc1ccc(-c2nn(-c3ccccc3)cc2/C=C2\SC(=S)N(CCCCCC(=O)O)C2=O)o1
< 4.52		COc1ccccc1/C=C1\SC(=S)N(CCCCCC(=O)O)C1=O
< 4.52		CCOc1cc(/C=C2\SC(=S)N(CCCCCC(=O)O)C2=O)ccc1O
< 4.52		O=C(O)CCCCCN1C(=O)/C(=C/c2ccc(-c3ccc(Cl)c(Cl)c3)o2)SC1=S
	inactive	COC(=O)CCCCCN1C(=O)/C(=C/c2cc(C)n(-c3ccccc3)c2C)SC1=S
< 4.52	inactive	O=C(O)CCN1C(=O)/C(=C/c2cn(-c3ccccc3)nc2-c2ccccc2)SC1=S
< 4.52		Cc1cc(/C=C2\SC(=S)N(CCCCCC(=O)O)C2=O)c(C)n1-c1ccccc1
< 4.52		O=C(O)CCCCCN1C(=O)/C(=C/c2cn(-c3ccccc3)nc2-c2ccccc2)SC1=S
< 4.52		Cc1nn(-c2ccccc2)c(Cl)c1/C=C1\SC(=S)N(CCCCCC(=O)O)C1=O

Source: ChEMBL document CHEMBL1149294, “A novel class of inhibitors of peptide deformylase discovered through high-throughput screening and virtual ligand screening” (J Med Chem, 2004)
